Results on 1 compound are retold here after patent US20180289721A1, “FULVESTRANT COMPOSITIONS” (THEMIS MEDICARE LIMITED, priority 2015, published 2018).

For series [1] the following is noted: diethylene glycol monoethyl ether as the sole solvent, reported by Patel; cited from earlier work.
Series [2] in a line: Solubility studies of fulvestrant in solvents, co-solvents, oils and release rate modifiers. Conditions: for solubility: read-out: Fulvestrant solubility achieved. It is filed as physicochemical. The procedure:
Solubility studies of fulvestrant were performed using various combinations of solvent, co-solvents, oils and release rate modifiers. The resultant data are shown herein below Table 1.

Converted amounts (≈) assume the structure as drawn. Where two headings read alike, the source gives them in different places.

As to `C[C@]12CC[C@@H]3c4ccc(O)cc4C[C@@H](CCCCCCCCC[S+]([O-])CCCC(F)(F)C(F)(F)F)[C@H]3[C@@H]1CC[C@@H]2O` (stereo partly drawn) [Fulvestrant, 7-alpha-[9-[(4,4,5,5,5-pentafluoropentyl)sulfinyl]nonyl]estra-1,3,5(10)-triene-3,17-beta-diol], the solubility (as a rule, the concentration that dissolves in the medium under given conditions) in series [1] is 58.80 mg/mL (≈ 96.9 mM); in series [2] (N-methyl pyrrolidone, organic solvent or mixture, N-methyl Pyrolidone), 250 mg/mL; in series [2] (Polyethylene Glycol 400, organic solvent or mixture, Polyethylene Glycol 400), 11.1 mg/mL; in series [2] (TCLS-101 (DMI), organic solvent or mixture, TCLS-101 (DMI)) it was 30.8 mg/mL; in series [2] (oil or lipid, Benzyl alcohol (4 v/v %):Benzyl benzoate (10 w/v %):Castor oil (50 v/v %):Diethylene glycol monoethyl ether (q.s. to 1 mL)), 56 mg/mL; in series [2] (oil or lipid, Benzyl alcohol (4 v/v %):Diethylene glycol monoethyl ether (31 v/v %):Castor oil (q.s. to 1 mL)) it was 30 mg/mL. The solubility in series [2] (oil or lipid, Benzyl alcohol (4 v/v %):Diethylene glycol monoethyl ether (46 v/v %):Castor oil (q.s. to 1 mL)) turned out to be 125 mg/mL; in series [2] (oil or lipid, Benzyl alcohol (10 v/v %):Castor oil (50 v/v %):Diethylene glycol monoethyl ether (q.s. to 1 mL)), 151 mg/mL; in series [2] (organic solvent or mixture, Benzyl alcohol (2 v/v %):Diethylene glycol monoethyl ether (q.s. to 1 mL)), 200 mg/mL; in series [2] (organic solvent or mixture, Benzyl alcohol (2 v/v %):MCT oil (1 v/v %):Diethylene glycol monoethyl ether (q.s. to 1 mL)), 200 mg/mL; in series [2] (organic solvent or mixture, Benzyl alcohol (4 v/v %):Diethylene glycol monoethyl ether (q.s. to 1.7 mL)), 176 mg/mL; in series [2] (organic solvent or mixture, Benzyl alcohol (5 v/v %):Diethylene glycol monoethyl ether (q.s. to 3.3 mL)), 151 mg/mL. For the same compound, the Fulvestrant solubility achieved in series [2] (Benzyl alcohol (4 v/v %):Diethylene glycol monoethyl ether (q.s. to 1.7 mL)) was 300 mg/1.7 mL; in series [2] (Benzyl alcohol (5 v/v %):Diethylene glycol monoethyl ether (q.s. to 3.3 mL)), 500 mg/3.3 mL.
